A value given as a limit tells only on which side of the number the result lay.

The test system of one assay is HCV. The experiment in a line: Assay of anti-HCV activity in HCV-infected Huh7.5 cells (intracellular HCV RNA by one-step quantitative RT-PCR). Format: cell-based. The following applies: Hepatitis C virus, Huh7.5, 96 h, read-out: inhibitory activities (inhibitory levels of the compounds against HCV replication). On the procedure:
100 μL Huh7.5 cells were seeded at a density of 1×10^5/mL in a 96-well cell culture plate and incubated in an incubator at 37° C., 5% CO2 and saturated humidity for 6 hrs. Then, while infecting Huh7.5 cells with viral solution containing HCV virus particles, the compounds of the present invention (including all specific compounds listed herein) were added at a concentration of 1 μM, respectively. After continuing incubation for 96 hrs, the total intracellular RNA was extracted separately, and the content of intracellular HCV RNA was measured by one-step quantitative RT-PCR, compared with the RNA level of the viral control, and the inhibition rate of the compounds against HCV was calculated.
On to `CN(CCN1CC1)c1ccc(C#N)c(CN2CCN(C(c3ccc(Cl)cc3)c3ccc(Cl)cc3)CC2)c1` [Compound 87, 4-((2-(aziridin-1-yl)ethyl)(methyl)amino)-2-((4-(bis(4-chlorophenyl)methyl)piperazin-1-yl)methyl)benzonitrile], for which the inhibition at 1 µM lay in the range of 50 to 75%.
Regarding `CN(CCN1CC1)c1ccc(C(F)(F)F)c(CN2CCN(C(c3ccc(Cl)cc3)c3ccc(Cl)cc3)CC2)c1` [Compound 64, N-(2-(aziridin-1-yl)ethyl)-3-((4-(bis(4-chlorophenyl)methyl)piperazin-1-yl)methyl)-N-methyl-4-(trifluoromethyl)aniline], the inhibition at 1 µM was greater than 75%.

Staying with this assay, now noted: Hepatitis C virus; compound at 1 μM; Huh7.5 cells infected with HCV; 96 hrs; intracellular HCV RNA vs viral control; read-out: inhibitory activities (inhibitory levels of the compounds against HCV replication).
Regarding `CN(C)CCN(C)c1ccc(C#N)c(CN2CCN(C(c3ccc(C#N)cc3)C3CCCC3)CC2)c1` (stereo not shown) [Compound 104, 2-({4-[(4-cyanophenyl)(cyclopentyl)methyl]piperazin-1-yl}methyl)-4-{[2-(dimethylamino)ethyl](methyl)amino}benzonitrile], the inhibition at 1 µM is greater than 75%.
Consider `Cc1ccc(CN2CCN(Cc3cc(N(C)CCN(C)C)ccc3C(F)(F)F)CC2)cc1` [Compound 10, N^1,N^1,N^2-trimethyl-N^2-(3-((4-(4-methylbenzyl)piperazin-1-yl)methyl)-4-(trifluoromethyl)phenyl)ethan-1,2-diamine], for which the inhibition at 1 µM lay in the range of 50 to 75%.
Turning to `CN1CCCN(c2ccc(C(F)(F)F)c(CN3CCN(c4ccc(Cl)cc4)CC3)c2)CC1` [Compound 23, 1-(3-((4-(4-chlorophenyl)piperazin-1-yl)methyl)-4-(trifluoromethyl)phenyl)-4-methyl-1,4-diazepane], the inhibition at 1 µM is greater than 75%.
On to `CN(C)CCN(C)c1ccc(C#N)c(CN2CCN(C(c3ccc(Br)cc3)c3ccc(Br)cc3)CC2)c1` [Compound 83, 2-((4-(bis(4-bromophenyl)methyl)piperazin-1-yl)methyl)-4-((2-(dimethylamino)ethyl)(methyl)amino)benzonitrile], for which the inhibition at 1 µM was greater than 75%.
The same measure, in the same setting: under `CN1CCCN(c2ccc(C(F)(F)F)c(CN3CCN(C(c4ccc(Oc5ccccc5)cc4)c4ccccn4)CC3)c2)CC1` (stereo not shown) [Compound 100, 1-methyl-4-[3-({4-[(4-phenoxyphenyl)(pyridin-2-yl)methyl]piperazin-1-yl}methyl)-4-(trifluoromethyl)phenyl]-1,4-diazepane] stands 50 to 75%; under `Cc1cc(C2CCN(Cc3cc(N4CCCN(C)CC4)ccc3C(F)(F)F)CC2)ccc1Cl` [Compound 43, 1-(3-((4-(4-chloro-3-methylphenyl)piperidin-1-yl)methyl)-4-(trifluoromethyl)phenyl)-4-methyl-1,4-diazepane], greater than 75%.
Still for that read-out and setting: under `CC1CN(c2ccc(Cl)cc2)CCN1Cc1cc(N(C)CN2CCCCC2)ccc1C(F)(F)F` (stereo not shown) [Compound 31, 3-((4-(4-chlorophenyl)-2-methylpiperazin-1-yl)methyl)-N-methyl-N-(piperidin-1-ylmethyl)-4-(trifluoromethyl)aniline] stands greater than 75%; under `CN1CCN(c2ccc(C(F)(F)F)c(CN3CCN(C(c4ccc(Br)cc4)c4ccc(Br)cc4)CC3)c2)CC1` [Compound 68, 1-(bis(4-bromophenyl)methyl)-4-(5-(4-methylpiperazin-1-yl)-2-(trifluoromethyl)benzyl)piperazine], greater than 75%.
On the same count and under the same terms, under `CN(CCN1CCCC1)c1ccc(C(F)(F)F)c(CN2CCC(c3ccc(Cl)cc3)CC2)c1` [Compound 39, 3-((4-(4-chlorophenyl)piperidin-1-yl)methyl)-N-methyl-N-(2-(pyrrolidin-1)ethyl)-4-(trifluoromethyl)aniline] stands greater than 75%.
In the case of `CN1CCCN(c2ccc(C#N)c(CN3CCN(C(c4ccc(Cl)cc4)c4ccc(Cl)cc4)CC3)c2)CC1` [Compound 77, 2-((4-(bis(4-chlorophenyl)methyl)piperazin-1-yl)methyl)-4-(4-methyl-1,4-diazepan-1-yl)benzonitrile], the inhibition at 1 µM is greater than 75%.
With `CN(CC1CCCCN1C)c1ccc(C(F)(F)F)c(CN2CCN(c3ccc(Cl)cc3)CC2)c1` (stereo not shown) [Compound 21, 3-((4-(4-chlorophenyl)piperazin-1-yl)methyl)-N-methyl-N-((1-methylpiperidin-2-yl)methyl)-4-(trifluoromethyl)aniline], the inhibition at 1 µM is greater than 75%.
Consider `CCCN(C)CCN(C)c1ccc(C(F)(F)F)c(CN2CCN(C(c3ccc(Cl)cc3)c3ccc(Cl)cc3)CC2)c1` [Compound 70, N^1-(3-((4-(bis(4-chlorophenyl)methyl)piperazin-1-yl)methyl)-4-(trifluoromethyl)phenyl)-N^1,N^2-dimethyl-N^2-propylethan-1,2-diamine], for which the inhibition at 1 µM is greater than 75%.
The same measure, in the same setting: under `Cc1cc(C(c2ccc(Cl)c(C)c2)N2CCN(Cc3cc(N(C)CCN(C)C)ccc3C#N)CC2)ccc1Cl` [Compound 95, 2-({4-[bis(4-chloro-3-methylphenyl)methyl]piperazin-1-yl}methyl)-4-{[2-(dimethylamino)ethyl](methyl)amino)benzonitrile] stands greater than 75%; under `N#Cc1ccc(N2CCN(C3CC3)CC2)cc1CN1CCN(Cc2ccc(Cl)cc2)CC1` [Compound 12, 2-((4-(4-chlorobenzyl)piperazin-1-yl)methyl)-4-(4-cyclopropylpiperazin-1-yl)benzonitrile], 50 to 75%; under `CN(C)CCN(C)c1ccc(C#N)c(CN2CCN(C(c3ccc(Cl)cc3)c3ccc(Cl)cc3)CC2)c1` [Compound 74, 2-((4-(bis(4-chlorophenyl)methyl)piperazin-1-yl)methyl)-4-((2-(dimethylamino)ethyl)(methyl)amino)benzonitrile], greater than 75%.
Consider `CC(c1ccc(F)c(Cl)c1)N1CCN(Cc2cc(N3CCCN(C)CC3)ccc2C(F)(F)F)CC1` (stereo not shown) [Compound 3, 1-(3-((4-(1-(3-chloro-4-fluorophenyl)ethyl)piperazin-1-yl)methyl)-4-(trifluoromethyl)phenyl)-4-methyl-1,4-diazepane], for which the inhibition at 1 µM is greater than 75%.
Same read-out and setting: next, `CN1CCCN(c2ccc(C(F)(F)F)c(CN3CCN(c4ccc(F)c(Cl)c4)CC3)c2)CC1` [Compound 37, 1-(3-((4-(3-chloro-4-fluorophenyl)piperazin-1-yl)methyl)-4-(trifluoromethyl)phenyl)-4-methyl-1,4-diazepane]: greater than 75%.
Same read-out and setting: under `CN(C)CCN(C)c1ccc(C(F)(F)F)c(CN2CCN(C(c3ccc(F)cc3)c3ccc(F)cc3)CC2)c1` [Compound 66, N^1-(3-((4-(bis(4-fluorophenyl)methyl)piperazin-1-yl)methyl)-4-(trifluoromethyl)phenyl)-N^1,N^2,N^2-trimethylethan-1,2-diamine] stands greater than 75%; under `CCN1CCCN(c2ccc(C(F)(F)F)c(CN3CCN(C(c4ccccn4)c4ccccn4)CC3)c2)CC1` [Compound 65, 1-(3-((4-(di(pyridin-2-yl)methyl)piperazin-1-yl)methyl)-4-(trifluoromethyl)phenyl)-4-ethyl-1,4-diazepane], 50 to 75%; under `CN1CCCN(c2ccc(C(F)(F)F)c(CN3CCN(C(c4ccc(Br)cc4)c4ccc(Br)cc4)CC3)c2)CC1` [Compound 47, 1-(3-((4-(bis(4-bromophenyl)methyl)piperazin-1-yl)methyl)-4-(trifluoromethyl)phenyl)-4-methyl-1,4-diazepane], greater than 75%.

The values above are taken from patent publication US11939307B2, “Phenylmethyl-piperazine derivatives and antiviral uses thereof” (INSTITUTE OF MEDICINAL BIOTECHNOLOGY, CHINESE ACADEMY OF …, priority 2019, dated 2024).
